# Earlier results, collected in patent US20040132104A1, “Vitamin D assay” (priority 2003, published 2004).
# Target: T1, Vitamin D binding protein (Homo sapiens, UniProt P02774)
# T1 sequence (P02774 17-474): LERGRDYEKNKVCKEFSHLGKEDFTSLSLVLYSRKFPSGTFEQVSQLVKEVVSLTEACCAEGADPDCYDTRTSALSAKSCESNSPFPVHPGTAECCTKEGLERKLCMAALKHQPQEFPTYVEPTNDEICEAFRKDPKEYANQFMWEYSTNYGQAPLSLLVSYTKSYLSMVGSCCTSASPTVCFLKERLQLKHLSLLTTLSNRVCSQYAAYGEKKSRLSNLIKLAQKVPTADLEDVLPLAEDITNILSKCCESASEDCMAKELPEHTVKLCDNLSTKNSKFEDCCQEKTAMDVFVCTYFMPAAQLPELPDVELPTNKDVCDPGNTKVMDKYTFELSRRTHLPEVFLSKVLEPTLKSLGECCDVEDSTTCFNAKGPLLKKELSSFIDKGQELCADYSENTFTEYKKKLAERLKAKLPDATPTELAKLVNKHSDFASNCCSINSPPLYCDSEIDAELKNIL
# Conditions: Vitamin D binding protein affinity for 25-OH Vitamin D
substance,measurement,value
25-hydroxy-vitamin D [25-OH Vitamin D],affinity,5e+08 M⁻¹
